From US11655268B2, “Nucleoside or nucleotide derivatives, and uses thereof” (ST Pharm Co., Ltd., priority 2018, dated 2023)
Read-outs that look alike come from different tables or passages of the source.

How the values were obtained:
in vitro [1] = conditions: human
[2] = Cytotoxicity (CC50) in Vero cells; conditions: African green monkey
CHIKV = test: Cytopathic effect reduction, Chikungunya virus in Vero cells, MTT; assay type: cell-based; conditions: 72 h, read-out: EC50 CHIKV
DENV = test: Reduction in viral infection, dengue virus in Vero cells, immunofluorescence (4G2 antibody); assay type: cell-based, Dengue virus New Guinea C (NGC); conditions: 72 h, read-out: EC50 DENV
in vitro [3] = conditions: dog
ZIKV = test: Reduction in viral infection, zika virus in Vero cells, immunofluorescence (4G2 antibody); assay type: cell-based, Zikavirus (MR766); conditions: 72 h, day 3 after infection
MERS-CoV = test: microbe, parasite or virus in culture; assay type: cell-based, MERS virus (MERS-CoV/KOR/KNIH/002_05_2015); conditions: Middle East respiratory syndrome-related coronavirus, Huh-7, 72 h, read-out: EC50 MERS-CoV
Influenza virus B/Lee/40 = test: Cytopathic effect reduction, influenza B Lee in MDCK cells, MTT; assay type: cell-based; conditions: for Selectivity index FluB Lee: CC50/EC50; for EC50: MDCK, 72 h, read-out: Anti-Flu activity EC50 FluB Lee
FIPV = test: Cytopathic effect reduction, FIPV in CRFK cells, MTT; assay type: cell-based, feline infectious peritonitis virus (FIPV); conditions: read-out: EC50 FIPV
hCoV (OC43) = test: Cytopathic effect reduction, hCoV OC43 in MRC-5 cells, MTT; assay type: cell-based, Human coronavirus hCoV OC43; conditions: Betacoronavirus 1, OC43, MRC5, 72 h, read-out: EC50 hCoV (OC43)
in vitro [4] = conditions: cat
in vitro [5] = conditions: human; remark: listed apart in the source
hCoV (229E) = test: microbe, parasite or virus in culture; assay type: cell-based, Human coronavirus hCoV 229E; conditions: MRC5, 72 h, read-out: EC50 hCoV (229E)
[6] = CC50 (CHIKV), Vero cells, CHIKV test, MTT
[7] = CC50 (DENV), Vero cells, DENV test
[8] = Alphacoronavirus 1, 72 h, CRFK cells, day 3 after infection
[9] = MRC-5 cells, day 3 after infection
[10] = read-out: CC50 (hCoV OC43), MRC-5 cells, day 3

| SMILES | CC50 at 3 days (in vitro [1]) | CC50 at 3 days [2, 6] | CC50 at 3 days [2, 7] | CC50 at 3 days ([2]; CC50, Vero cells, ZIKV test) | EC50 (CHIKV) | EC50 (DENV) | CC50 at 3 days (in vitro [3]) | EC50 (ZIKV) | EC50 (MERS-CoV) | Selectivity index FluB Lee (Influenza virus B/Lee/40) | EC50 (Influenza virus B/Lee/40) | EC50 (FIPV; Alphacoronavirus 1, CRFK, 72 h) | EC50 (hCoV (OC43)) | CC50 (MRC-5 cells; human) | CC50 (in vitro [4]) | CC50 (in vitro [5]) | EC50 (hCoV (229E)) | also measured |
| --- | --- | --- | --- | --- | --- | --- | --- | --- | --- | --- | --- | --- | --- | --- | --- | --- | --- | --- |
| O=C(Nc1ccn(C2O[C@H](CO)[C@@H](O)[C@H]2F)c(=O)n1)c1cccc(-c2ccccc2)n1 (stereo in doubt) [Example 27, N-(1-((2S,3R,4R,5R)-3-fluoro-4-hydroxy-5-(hydroxymethyl)tetrahydrofuran-2-yl)-2-oxo-1,2-dihydropyrimidin-4-yl)-6-phenylpicolinamide] | 56.6 µM | > 100 µM | 64.4 µM | > 100 µM | > 100 µM | 13.7 µM | > 100 µM | > 100 µM | 20.9 µM | >6.4 | 15.6 µM | – | – | – | – | – | – | – |
| Cc1nccc(C(=O)Nc2ccn(C3O[C@H](CO)[C@@H](O)[C@H]3F)c(=O)n2)n1 (stereo in doubt) [Example 29, N-(1-((2S,3R,4R,5R)-3-fluoro-4-hydroxy-5-(hydroxymethyl)tetrahydrofuran-2-yl)-2-oxo-1,2-dihydropyrimidin-4-yl)-2-methylpyrimidin-4-carboxamide] | > 100 µM | > 100 µM | > 100 µM | > 100 µM | 24 µM | > 100 µM | > 100 µM | > 100 µM | > 100 µM | >17.9 | 5.6 µM | – | – | – | – | – | – | – |
| O=C(Nc1ccn(C2O[C@H](CO)[C@@H](O)[C@H]2F)c(=O)n1)c1ccc([N+](=O)[O-])cn1 (stereo in doubt) [Example 30, N-(1-((2S,3R,4R,5R)-3-fluoro-4-hydroxy-5-(hydroxymethyl)tetrahydrofuran-2-yl)-2-oxo-1,2-dihydropyrimidin-4-yl)-5-nitropicolinamide] | > 100 µM | > 100 µM | > 100 µM | > 100 µM | 62.5 µM | 77.9 µM | > 100 µM | > 100 µM | > 100 µM | >15.4 | 6.5 µM | – | – | – | – | – | – | – |
| Nc1ccc(C(=O)Nc2ccn(C3O[C@H](CO)[C@@H](O)[C@H]3F)c(=O)n2)nc1 (stereo in doubt) [Example 31, 5-Amino-N-(1-((2S,3R,4R,5R)-3-fluoro-4-hydroxy-5-(hydroxymethyl)tetrahydrofuran-2-yl)-2-oxo-1,2-dihydropyrimidin-4-yl)picolinamide] | > 100 µM | – | > 100 µM | > 100 µM | – | > 100 µM | – | 57.6 µM | > 100 µM | – | – | – | – | – | – | – | – | – |
| O=C(Nc1ccn(C2O[C@H](CO)[C@@H](O)[C@H]2F)c(=O)n1)c1cccnn1 (stereo in doubt) [Example 33, N-(1-((2S,3R,4R,5R)-3-fluoro-4-hydroxy-5-(hydroxymethyl)tetrahydrofuran-2-yl)-2-oxo-1,2-dihydropyrimidin-4-yl)pyridazine-3-carboxamide] | > 100 µM | > 100 µM | > 100 µM | > 100 µM | 86.4 µM | > 100 µM | > 100 µM | > 100 µM | > 100 µM | >12.8 | 7.8 µM | – | – | – | – | – | – | – |
| O=C(Nc1ccn([C@@H]2O[C@H](CO)[C@@H](O)C2(F)F)c(=O)n1)c1cccnc1 [Example 1, N-(1-((2R,4R,5R)-3,3-difluoro-4-hydroxy-5-(hydroxymethyl)tetrahydrofuran-2-yl)-2-oxo-1,2-dihydropyrimidin-4-yl)nicotinamide] | > 100 µM | – | > 100 µM | – | – | 3.42 µM | > 100 µM | – | 10.4 µM | >34.9 | 8.6 µM | 25 µM | 76 µM | > 100 µM | 56 µM | > 100 µM | 4.6 µM | – |
| O=C(Nc1ccn([C@@H]2O[C@H](CO)[C@@H](O)C2(F)F)c(=O)n1)c1ccccn1 [Example 2, N-(1-((2R,4R,5R)-3,3-difluoro-4-hydroxy-5-(hydroxymethyl)tetrahydrofuran-2-yl)-2-oxo-1,2-dihydropyrimidin-4-yl)picolinamide] | > 100 µM | – | > 100 µM | – | – | 0.72 µM | > 100 µM | – | 1.8 µM | >136.4 | 2.2 µM | 9.1 µM | > 100 µM | > 100 µM | > 100 µM | > 100 µM | 0.8 µM | – |
| Cc1ccc(C(=O)Nc2ccn([C@@H]3O[C@H](CO)[C@@H](O)C3(F)F)c(=O)n2)cn1 [Example 4, N-(1-((2R,4R,5R)-3,3-difluoro-4-hydroxy-5-(hydroxymethyl)tetrahydrofuran-2-yl)-2-oxo-1,2-dihydropyrimidin-4-yl)-6-methylnicotinamide] | > 100 µM | – | > 100 µM | – | – | 0.71 µM | > 100 µM | – | 2.2 µM | >157.9 | 1.9 µM | 8.1 µM | > 100 µM | > 100 µM | > 100 µM | > 100 µM | 11.1 µM | – |
| O=C(Nc1ccn([C@@H]2O[C@H](CO)[C@@H](O)C2(F)F)c(=O)n1)c1cccnn1 [Example 5, N-(1-((2R,4R,5R)-3,3-difluoro-4-hydroxy-5-(hydroxymethyl)tetrahydrofuran-2-yl)-2-oxo-1,2-dihydropyrimidin-4-yl)pyridazine-3-carboxamide] | > 100 µM | – | > 100 µM | – | – | 0.94 µM | > 100 µM | – | 1.4 µM | >142.9 | 2.1 µM | 8.5 µM | 17.2 µM | > 100 µM | > 100 µM | > 100 µM | 8.9 µM | – |
| O=C1CCCN1c1ccn([C@@H]2O[C@H](CO)[C@@H](O)C2(F)F)c(=O)n1 [Example 7] | – | – | > 100 µM | – | – | 15.7 µM | > 100 µM | – | – | >10.6 | 9.4 µM | – | – | – | > 100 µM | > 100 µM | – | EC50 (FIPV; [8]): 77 µM; EC50 (hCoV (OC43); [9]): > 100 µM; CC50 (MRC-5 cells; [10]): > 100 µM; EC50 (hCoV (229E); [9]): 17.6 µM |
| O=C(Nc1ccn([C@@H]2O[C@H](CO)[C@@H](O)C2(F)F)c(=O)n1)c1ccc(F)cn1 [Example 9, N-(1-((2R,4R,5R)-3,3-difluoro-4-hydroxy-5-(hydroxymethyl)tetrahydrofuran-2-yl)-2-oxo-1,2-dihydropyrimidin-4-yl)-5-fluoropicolinamide] | – | – | > 100 µM | – | – | 1.34 µM | > 100 µM | – | – | >16.4 | 6.1 µM | – | – | – | > 100 µM | > 100 µM | – | EC50 (FIPV; [8]): 18 µM; EC50 (hCoV (OC43); [9]): > 100 µM; CC50 (MRC-5 cells; [10]): > 100 µM; EC50 (hCoV (229E); [9]): 2.4 µM |
| Cc1ccc(C(=O)Nc2ccn([C@@H]3O[C@H](CO)[C@@H](O)C3(F)F)c(=O)n2)nc1 [Example 10, N-(1-((2R,4R,5R)-3,3-difluoro-4-hydroxy-5-(hydroxymethyl)tetrahydrofuran-2-yl)-2-oxo-1,2-dihydropyrimidin-4-yl)-5-methylpicolinamide] | – | – | > 100 µM | – | – | 2.53 µM | > 100 µM | – | – | >10.2 | 9.8 µM | – | – | – | 92 µM | > 100 µM | – | EC50 (FIPV; [8]): 21 µM; EC50 (hCoV (OC43); [9]): > 100 µM; CC50 (MRC-5 cells; [10]): > 100 µM; EC50 (hCoV (229E); [9]): 7.4 µM |
